{"source": "ChEMBL document CHEMBL4680302", "about": "“Biologic-like In Vivo Efficacy with Small Molecule Inhibitors of TNFα Identified Using Scaffold Hopping and Structure-Based Drug Design Approaches” (J Med Chem, 2020)", "key": {"[1]": {"test": "Metabolic stability in human liver microsomes assessed as parent compound remaining after 10 mins", "assay_type": "ADME, Microsome", "conditions": "read-out: Stabilty"}, "[2]": {"test": "Selectivity ratio of drug exposure in TNFalpha-induced C57BL/6J mouse at 25 mg/kg, po at 3 hrs post dose to IC50 for inhibition of human TNFalpha expressed in HEK-Blue-CD40L cells assessed as inhibition of NFkappaB activation by quanti-blue based SEAP assay"}, "Tumor necrosis factor [3]": {"molecular_target": "T1, Tumor necrosis factor (Homo sapiens, UniProt P01375)", "T1 sequence (P01375 whole entry, the tested form may be a part)": "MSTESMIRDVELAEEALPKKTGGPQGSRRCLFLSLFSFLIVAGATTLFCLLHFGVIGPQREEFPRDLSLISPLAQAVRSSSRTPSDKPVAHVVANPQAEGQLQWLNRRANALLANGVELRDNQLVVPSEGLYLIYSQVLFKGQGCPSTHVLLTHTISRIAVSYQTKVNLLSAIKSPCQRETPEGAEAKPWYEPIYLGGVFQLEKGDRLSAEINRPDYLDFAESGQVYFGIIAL", "test": "Displacement of fluorescent labeled probe from human recombinant His-tagged TNFalpha (77 to 233 residues) expressed in Escherichia coli preincubated for 1 hr followed by fluorogenic probe addition and measured after 3 hrs by HTRF assay"}, "[4]": {"test": "Total AUC in mouse at 2 mg/kg, po", "assay_type": "ADME, organism-based", "set-up": "time AUCmax, route oral, dose 2 mg/kg", "conditions": "in vivo"}, "[5]": {"test": "Protein binding in human assessed as unbound fraction", "assay_type": "ADME"}, "Cytochrome P450 2C8": {"molecular_target": "T2, Cytochrome P450 2C8 (Homo sapiens, UniProt P10632)", "T2 sequence (P10632 whole entry)": "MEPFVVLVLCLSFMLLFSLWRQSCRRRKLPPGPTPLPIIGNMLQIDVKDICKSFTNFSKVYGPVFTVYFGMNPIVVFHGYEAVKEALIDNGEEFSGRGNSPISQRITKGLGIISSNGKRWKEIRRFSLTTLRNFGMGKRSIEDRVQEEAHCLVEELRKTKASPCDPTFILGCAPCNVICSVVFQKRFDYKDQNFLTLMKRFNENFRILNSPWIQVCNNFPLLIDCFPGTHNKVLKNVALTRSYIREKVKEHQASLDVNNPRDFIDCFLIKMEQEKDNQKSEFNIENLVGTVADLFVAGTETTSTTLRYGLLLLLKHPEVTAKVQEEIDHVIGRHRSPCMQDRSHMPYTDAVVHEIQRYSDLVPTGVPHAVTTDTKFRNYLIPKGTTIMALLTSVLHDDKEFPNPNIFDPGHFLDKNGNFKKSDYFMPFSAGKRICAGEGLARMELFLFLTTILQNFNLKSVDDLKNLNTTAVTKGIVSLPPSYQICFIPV", "test": "Inhibition of recombinant CYP2C8 (unknown origin)", "assay_type": "ADME"}, "Mus musculus [6]": {"test_system": "Mus musculus", "test": "Antiarthritic activity against anticollagen antibody-induced arthritis BALB/c mouse model assessed as reduction in swelling of digits administered orally twice a day followed by LPS stimulation after 6 hrs measured until day 12", "assay_type": "functional, organism-based", "conditions": "dose 2-10 mg/kg, time 12.0 day"}, "Lymphotoxin-beta": {"molecular_target": "T3, Lymphotoxin-beta (Homo sapiens, UniProt Q06643)", "T3 sequence (Q06643 whole entry)": "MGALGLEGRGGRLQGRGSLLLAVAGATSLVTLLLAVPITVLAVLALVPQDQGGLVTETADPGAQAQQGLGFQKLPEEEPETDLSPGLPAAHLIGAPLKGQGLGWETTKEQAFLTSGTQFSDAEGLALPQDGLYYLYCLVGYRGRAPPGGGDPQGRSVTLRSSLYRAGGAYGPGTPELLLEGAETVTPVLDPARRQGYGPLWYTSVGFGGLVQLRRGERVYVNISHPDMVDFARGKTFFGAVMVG", "test": "Inhibition of LTbeta (unknown origin)"}, "[7]": {"test": "Metabolic stability in human liver microsomes assessed as half-life", "assay_type": "ADME, Microsome"}, "[8]": {"test": "Oral bioavailability in mouse at 2 mg/kg", "assay_type": "ADME, organism-based", "conditions": "in vivo"}, "[9]": {"test": "Selectivity ratio of drug exposure in anticollagen antibody-induced arthritis BALB/c mouse model at 10 mg/kg, po BID for 12 days to IC50 for inhibition of human TNFalpha expressed in HEK-Blue-CD40L cells assessed as inhibition of NFkappaB activation by quanti-blue based SEAP assay"}, "[10]": {"test": "Permeability of the compound across basolateral to apical side of membrane in human Caco-2 cells", "assay_type": "ADME, cell-based", "conditions": "read-out: permeability"}, "[11]": {"test": "Half-life in mouse at 0.5 mg/kg, iv", "assay_type": "ADME, organism-based", "conditions": "in vivo"}, "Mus musculus [12]": {"test_system": "Mus musculus", "test": "Antiarthritic activity against anticollagen antibody-induced arthritis BALB/c mouse model assessed as reduction in LPS-induced IL-1beta production administered orally twice daily followed by LPS stimulation after 6 hrs measured on day 12 by RT-PCR analysis", "assay_type": "functional, organism-based", "conditions": "dose 2-10 mg/kg, time 12.0 day"}, "Tumor necrosis factor [13]": {"molecular_target": "T1, Tumor necrosis factor", "test": "Inhibition of human recombinant His-tagged TNF-alpha-mediated E-selectin expression in HUVEC cells preincubated for 30 mins in presence of TNFalpha and measured after 3 hrs by flow cytometry analysis", "assay_type": "cell-based"}, "Cytochrome P450 2C19": {"molecular_target": "Cytochrome P450 2C19 (Homo sapiens, UniProt P33261)", "sequence (P33261 whole entry)": "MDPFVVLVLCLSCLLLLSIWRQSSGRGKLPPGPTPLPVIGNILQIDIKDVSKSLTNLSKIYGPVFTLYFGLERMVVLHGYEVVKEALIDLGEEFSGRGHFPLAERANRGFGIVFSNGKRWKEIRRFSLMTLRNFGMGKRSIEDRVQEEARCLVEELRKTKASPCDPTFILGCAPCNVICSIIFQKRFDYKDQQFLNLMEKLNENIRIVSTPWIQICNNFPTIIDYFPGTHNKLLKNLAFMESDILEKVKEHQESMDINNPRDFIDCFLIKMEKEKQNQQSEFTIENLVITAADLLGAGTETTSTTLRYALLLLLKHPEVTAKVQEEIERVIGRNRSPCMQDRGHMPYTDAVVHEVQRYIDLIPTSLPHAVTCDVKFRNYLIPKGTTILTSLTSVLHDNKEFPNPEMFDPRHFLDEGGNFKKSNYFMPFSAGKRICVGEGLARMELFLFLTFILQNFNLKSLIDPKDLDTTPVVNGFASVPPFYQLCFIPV", "test": "Inhibition of recombinant CYP2C19 (unknown origin)", "assay_type": "ADME"}, "[14]": {"test": "Total AUC in mouse at 0.5 mg/kg, iv", "assay_type": "ADME, organism-based", "set-up": "route intravenous, time AUCmax, dose 0.5 mg/kg", "conditions": "in vivo"}, "Mus musculus [15]": {"test_system": "Mus musculus", "test": "Antiarthritic activity against anticollagen antibody-induced arthritis BALB/c mouse model assessed as reduction in LPS-induced CXCL10 levels administered orally twice daily followed by LPS stimulation after 6 hrs measured on day 12 by RT-PCR analysis", "assay_type": "functional, organism-based", "conditions": "dose 2-10 mg/kg, time 12.0 day"}, "Cytochrome P450 3A4": {"molecular_target": "Cytochrome P450 3A4 (Homo sapiens, UniProt P08684)", "sequence (P08684 whole entry)": "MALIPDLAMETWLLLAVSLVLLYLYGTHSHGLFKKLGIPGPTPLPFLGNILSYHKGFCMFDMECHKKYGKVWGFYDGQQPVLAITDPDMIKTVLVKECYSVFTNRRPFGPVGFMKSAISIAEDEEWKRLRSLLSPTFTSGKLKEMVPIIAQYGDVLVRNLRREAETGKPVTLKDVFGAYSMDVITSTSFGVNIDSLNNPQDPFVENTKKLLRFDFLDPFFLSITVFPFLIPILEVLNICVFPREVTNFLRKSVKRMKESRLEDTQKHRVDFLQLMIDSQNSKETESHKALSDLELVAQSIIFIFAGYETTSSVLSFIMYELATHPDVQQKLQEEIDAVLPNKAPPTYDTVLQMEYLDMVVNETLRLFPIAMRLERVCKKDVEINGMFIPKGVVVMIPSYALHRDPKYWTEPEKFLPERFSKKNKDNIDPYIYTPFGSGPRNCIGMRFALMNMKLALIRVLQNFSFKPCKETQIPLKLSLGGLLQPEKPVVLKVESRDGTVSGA", "test": "Inhibition of recombinant CYP3A4 (unknown origin) in presence of BFC as substrate", "assay_type": "ADME"}, "Cytochrome P450 1A2": {"molecular_target": "T4, Cytochrome P450 1A2 (Homo sapiens, UniProt P05177)", "T4 sequence (P05177 whole entry)": "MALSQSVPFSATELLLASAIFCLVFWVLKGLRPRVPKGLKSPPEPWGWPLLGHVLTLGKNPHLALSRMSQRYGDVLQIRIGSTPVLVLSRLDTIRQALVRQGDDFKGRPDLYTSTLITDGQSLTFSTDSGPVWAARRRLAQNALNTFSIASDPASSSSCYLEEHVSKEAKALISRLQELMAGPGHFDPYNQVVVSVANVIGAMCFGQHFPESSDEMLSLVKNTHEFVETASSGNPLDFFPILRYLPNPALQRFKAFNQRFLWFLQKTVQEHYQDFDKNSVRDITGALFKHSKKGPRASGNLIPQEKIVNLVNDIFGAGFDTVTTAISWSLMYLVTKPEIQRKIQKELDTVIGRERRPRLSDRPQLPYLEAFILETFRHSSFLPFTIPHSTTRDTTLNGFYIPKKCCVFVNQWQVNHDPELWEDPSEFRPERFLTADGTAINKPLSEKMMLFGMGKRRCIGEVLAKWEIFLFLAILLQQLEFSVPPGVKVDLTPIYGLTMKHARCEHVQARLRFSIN", "test": "Inhibition of recombinant CYP1A2 (unknown origin)", "assay_type": "ADME"}, "[16]": {"test": "Clearance in mouse at 0.5 mg/kg, iv", "assay_type": "ADME, organism-based", "conditions": "in vivo"}, "Tumor necrosis factor [17]": {"molecular_target": "T1, Tumor necrosis factor", "test": "Inhibition of exogenous human TNFalpha in HEK-Blue-CD40L cells assessed as reduction in TNF-alpha-induced NFkappaB activation incubated for 18 hrs by quanti-blue based SEAP assay", "assay_type": "cell-based"}}}
{"smiles": "Cc1nc2cc(F)c(-c3cnc(C(C)(C)O)nc3)nc2c(N[C@H](C)c2cc(C#N)ccc2F)c1Cl", "values": [{"measurement": "remaining at 10 min", "setting": "[1]", "result": 95, "unit": "%"}, {"measurement": "Selectivity ratio", "setting": "[2]", "result": 7}, {"measurement": "IC50", "setting": "Tumor necrosis factor [3]", "result": 25, "unit": "nM"}, {"measurement": "AUC", "setting": "[4]", "result": 5.9, "unit": "µM·h"}, {"measurement": "Fu", "setting": "[5]", "result": 0.35, "unit": "%"}, {"measurement": "IC50", "setting": "Cytochrome P450 2C8", "result": "> 6700", "unit": "nM"}, {"measurement": "Activity", "setting": "Mus musculus [6]", "result": "Dose-dependent effect"}, {"measurement": "IC50", "setting": "Lymphotoxin-beta", "result": "> 10000", "unit": "nM"}, {"measurement": "half-life", "setting": "[7]", "result": "> 2", "unit": "h"}, {"measurement": "bioavailability", "setting": "[8]", "result": 58, "unit": "%"}, {"measurement": "Selectivity ratio", "setting": "[9]", "result": 4.4}, {"measurement": "Papp B→A", "setting": "[10]", "result": 8, "unit": "×10⁻⁶ cm/s"}, {"measurement": "half-life", "setting": "[11]", "result": 6.2, "unit": "h"}, {"measurement": "Activity", "setting": "Mus musculus [12]", "result": "Dose-dependent effect"}, {"measurement": "IC50", "setting": "Tumor necrosis factor [13]", "result": 30, "unit": "nM"}, {"measurement": "IC50", "setting": "Cytochrome P450 2C19", "result": "> 20000", "unit": "nM"}, {"measurement": "AUC", "setting": "[14]", "result": 2.5, "unit": "µM·h"}, {"measurement": "Activity", "setting": "Mus musculus [15]", "result": "Dose-dependent effect"}, {"measurement": "IC50", "setting": "Cytochrome P450 3A4", "result": "> 20000", "unit": "nM"}, {"measurement": "IC50", "setting": "Cytochrome P450 1A2", "result": "> 20000", "unit": "nM"}, {"measurement": "clearance", "setting": "[16]", "result": 6.6, "unit": "mL/min/kg"}, {"measurement": "IC50", "setting": "Tumor necrosis factor [17]", "result": 27, "unit": "nM"}]}
